Blank lines part the entries; values can stand above or below the molecule they belong to. Where a SMILES comes first, the peptide text is derived from it. Bridges are numbered along the chain shown (N, C = ends). [ ]: non-standard residue; d: D form.
Legend:
[1] = PK test for small-intestinal administration of rInsulin (ELISA); assay type: in vivo; conditions: SD rats; small-intestinal administration at 200 μg/kg without composition
Excerpt: (§1) Laboratory Animals: Adult Male SD Rats.
(§2) The plasma was collected and subjected to quick freezing.

[2] = PK test for small-intestinal administration of ACTH (ELISA); assay type: in vivo; conditions: SD rats
Excerpt: as §1, §2

[3] = PK test for small-intestinal administration of Teriparatide (ELISA); assay type: in vivo; conditions: SD rats
Excerpt: as §1, §2

[4] = PK test for small-intestinal administration of Gramicidin (ELISA); assay type: in vivo; conditions: SD rats
Excerpt: as §1, §2

[5] = PK test for small-intestinal administration of Octreotide (ELISA); assay type: in vivo; conditions: SD rats
Excerpt: as §1, §2

[6] = PK test for small-intestinal administration of Bivalirudin (ELISA); assay type: in vivo; conditions: SD rats
Excerpt: as §1, §2

[7] = PK test for small-intestinal administration of Growth Hormone (ELISA); assay type: in vivo; conditions: SD rats
Excerpt: as §1, §2

[8] = PK test for small-intestinal administration of Vasopressin (ELISA); assay type: in vivo; conditions: SD rats
Excerpt: as §1, §2

in vivo [9] = experiment: in vivo; design: species or system SD rats; conditions: male, SD, rat
Excerpt: The composition of the present invention: polyethylene glycol 4000, carbomer, chitosan oligosaccharide, and citric acid, in a weight ratio of 19:6:6:60.
as §1, §2

[10] = PK test for small-intestinal administration of Teduglutide (ELISA); assay type: in vivo; conditions: SD rats
Excerpt: The composition of the present invention: Tween 80, Carbomer 910, carboxymethyl Chitosan, and Sodium Tartrate, in a weight ratio of 25:8:8:80.
as §1, §2

[11] = PK test for small-intestinal administration of Thymosin alpha-1 (ELISA); assay type: in vivo; conditions: SD rats
Excerpt: as §1, §2

[12] = PK test for small-intestinal administration of Oxytocin (ELISA); assay type: in vivo; conditions: SD rats
Excerpt: as §1, §2

[13] = PK test for small-intestinal administration of Mecasermin (ELISA); assay type: in vivo; conditions: SD rats
Excerpt: as §1, §2

in vivo [14] = experiment: in vivo
Excerpt: as §1, §2

in vivo [15] = conditions: male, SD, rat
[16] = small-intestinal administration at 200 μg/kg without composition
[17] = rat, in vivo, ei 200 μg/kg with composition sodium lauryl sulfate, carbomer, chitosan, sodium citrate 20:6.5:6.5:65 (1:5), vs iv 1 μg/kg

Molecule: rInsulin: Recombinant Insulin (rInsulin)
blood concentration [1]: lower than the detection limit of ELISA

blood concentration [2, 16]: lower than the detection limit of ELISA
bioavailability [2, 17]: 1.86%
Molecule: CSCC[C@H](NC(=O)[C@H](CO)NC(=O)[C@H](Cc1ccc(O)cc1)NC(=O)[C@@H](N)CO)C(=O)N[C@@H](CCC(=O)O)C(=O)N[C@@H](Cc1cnc[nH]1)C(=O)N[C@@H](Cc1ccccc1)C(=O)N[C@@H](CCCNC(=N)N)C(=O)N[C@@H](Cc1c[nH]c2ccccc12)C(=O)NCC(=O)N[C@@H](CCCCN)C(=O)N1CCC[C@H]1C(=O)N[C@H](C(=O)NCC(=O)N[C@@H](CCCCN)C(=O)N[C@@H](CCCCN)C(=O)N[C@@H](CCCNC(=N)N)C(=O)N[C@@H](CCCNC(=N)N)C(=O)N1CCC[C@H]1C(=O)N[C@H](C(=O)N[C@@H](CCCCN)C(=O)N[C@H](C(=O)N[C@@H](Cc1ccc(O)cc1)C(=O)N1CCC[C@H]1C(=O)N[C@@H](CC(N)=O)C(=O)NCC(=O)N[C@@H](C)C(=O)N[C@@H](CCC(=O)O)C(=O)N[C@@H](CC(=O)O)C(=O)N[C@@H](CCC(=O)O)C(=O)N[C@@H](CO)C(=O)N[C@@H](C)C(=O)N[C@@H](CCC(=O)O)C(=O)N[C@@H](C)C(=O)N[C@@H](Cc1ccccc1)C(=O)N1CCC[C@H]1C(=O)N[C@@H](CC(C)C)C(=O)N[C@@H](CCC(=O)O)C(=O)N[C@@H](Cc1ccccc1)C(=O)O)C(C)C)C(C)C)C(C)C [ACTH] (H-SYSMEHFRWGKPVGKKRRPVKVYPNGAEDESAEAFPLEF-OH)

blood concentration [3, 16]: lower than the detection limit of ELISA
bioavailability ([3]; male, rat, plasma, ei 200 μg/kg with composition sodium lauryl sulfate, carbomer, chitosan, sodium citrate 20:6.5:6.5:65 (1:5), vs iv 1 μg/kg): 2.08%
Molecule: CC[C@H](C)[C@H](NC(=O)[C@H](CCC(=O)O)NC(=O)[C@H](CO)NC(=O)[C@@H](NC(=O)[C@@H](N)CO)C(C)C)C(=O)N[C@@H](CCC(N)=O)C(=O)N[C@@H](CC(C)C)C(=O)N[C@@H](CCSC)C(=O)N[C@@H](Cc1cnc[nH]1)C(=O)N[C@@H](CC(N)=O)C(=O)N[C@@H](CC(C)C)C(=O)NCC(=O)N[C@@H](CCCCN)C(=O)N[C@@H](Cc1cnc[nH]1)C(=O)N[C@@H](CC(C)C)C(=O)N[C@@H](CC(N)=O)C(=O)N[C@@H](CO)C(=O)N[C@@H](CCSC)C(=O)N[C@@H](CCC(=O)O)C(=O)N[C@@H](CCCN=C(N)N)C(=O)N[C@H](C(=O)N[C@@H](CCC(=O)O)C(=O)N[C@@H](Cc1c[nH]c2ccccc12)C(=O)N[C@@H](CC(C)C)C(=O)N[C@@H](CCCN=C(N)N)C(=O)N[C@@H](CCCCN)C(=O)N[C@@H](CCCCN)C(=O)N[C@@H](CC(C)C)C(=O)N[C@@H](CCC(N)=O)C(=O)N[C@@H](CC(=O)O)C(=O)N[C@H](C(=O)N[C@@H](Cc1cnc[nH]1)C(=O)N[C@@H](CC(N)=O)C(=O)N[C@@H](Cc1ccccc1)C(=O)O)C(C)C)C(C)C [Teriparatide]

Molecule: Gramicidin D
bioavailability of small-intestinal administration ([4]; ei 200 μg/kg with composition sodium lauryl sulfate, carbomer, chitosan, sodium citrate 19:6:6:60 (1:5), vs iv 1 μg/kg): 1.18%
blood concentration [4, 16]: lower than the detection limit of ELISA

Molecule: C[C@@H](O)[C@@H]1NC(=O)[C@H](CCCCN)NC(=O)[C@@H](Cc2c[nH]c3ccccc23)NC(=O)[C@H](Cc2ccccc2)NC(=O)[C@@H](NC(=O)[C@H](N)Cc2ccccc2)CSSC[C@@H](C(=O)N[C@H](CO)[C@@H](C)O)NC1=O [Octreotide]
blood concentration [5, 16]: lower than the detection limit of ELISA
bioavailability ([5]; male, rat, plasma, ei 200 μg/kg with composition sodium lauryl sulfate, carbomer, chitosan, sodium citrate 21:7:6:69 (1:5), vs iv 1 μg/kg): 1.71%

Molecule: CC[C@H](C)[C@H](NC(=O)[C@H](CCC(=O)O)NC(=O)[C@H](CCC(=O)O)NC(=O)[C@H](Cc1ccccc1)NC(=O)[C@H](CC(=O)O)NC(=O)CNC(=O)[C@H](CC(N)=O)NC(=O)CNC(=O)CNC(=O)CNC(=O)CNC(=O)[C@@H]1CCCN1C(=O)[C@H](CCCNC(=N)N)NC(=O)[C@@H]1CCCN1C(=O)[C@H](N)Cc1ccccc1)C(=O)N1CCC[C@H]1C(=O)N[C@@H](CCC(=O)O)C(=O)N[C@@H](CCC(=O)O)C(=O)N[C@@H](Cc1ccc(O)cc1)C(=O)N[C@@H](CC(C)C)C(=O)O [Bivalirudin]
blood concentration [6, 16]: lower than the detection limit of ELISA
bioavailability ([6]; rat, in vivo, ei 200 μg/kg with composition sodium lauryl sulfate, carbomer, chitosan, citric acid 19:6.5:7:67 (1:5), vs iv 1 μg/kg): 1.63%

Molecule: Growth Hormone: Growth Hormone (rhGH)
bioavailability of small-intestinal administration ([7]; ei 200 μg/kg with composition sodium lauryl sulfate, carbomer, chitosan, sodium citrate 20:6.5:6.5:65 (1:5), vs iv 1 μg/kg): 0.32%
blood concentration [7, 16]: lower than the detection limit of ELISA

Molecule: NC(=O)CC[C@@H]1NC(=O)[C@H](Cc2ccccc2)NC(=O)[C@H](Cc2ccc(O)cc2)NC(=O)[C@@H](N)CSSC[C@@H](C(=O)N2CCC[C@H]2C(=O)N[C@@H](CCCN=C(N)N)C(=O)NCC(N)=O)NC(=O)[C@H](CC(N)=O)NC1=O [Vasopressin]
blood concentration [8, 16]: lower than the detection limit of ELISA
bioavailability ([8]; male, rat, plasma, ei 200 μg/kg with composition sodium lauryl sulfate, carbomer, chitosan, sodium citrate 23:8:7.5:80 (1:5), vs iv 1 μg/kg): 1.81%

bioavailability (in vivo [9]): 1.32%
Molecule: CCNC(=O)[C@@H]1CCCN1C(=O)[C@H](CCCNC(=N)N)NC(=O)[C@H](CC(C)C)NC(=O)[C@@H](CC(C)C)NC(=O)[C@H](Cc1ccc(O)cc1)NC(=O)[C@H](CO)NC(=O)[C@H](Cc1c[nH]c2ccccc12)NC(=O)[C@H](Cc1c[nH]cn1)NC(=O)[C@@H]1CCC(=O)N1 [Leuprolide]

blood concentration [10, 16]: lower than the detection limit of ELISA
bioavailability ([10]; male, rat, plasma, ei 200 μg/kg with composition Tween 80, Carbomer 910, carboxymethyl Chitosan, Sodium Tartrate 25:8:8:80 (1:5), vs iv 1 μg/kg): 2.13%
Molecule: CC[C@H](C)[C@H](NC(=O)[C@H](Cc1ccccc1)NC(=O)[C@H](CC(=O)O)NC(=O)[C@H](CCCNC(=N)N)NC(=O)[C@H](C)NC(=O)[C@H](C)NC(=O)[C@H](CC(C)C)NC(=O)[C@H](CC(N)=O)NC(=O)[C@H](CC(=O)O)NC(=O)[C@H](CC(C)C)NC(=O)[C@@H](NC(=O)[C@@H](NC(=O)[C@H](CC(N)=O)NC(=O)[C@H](CCSC)NC(=O)[C@H](CCC(=O)O)NC(=O)[C@H](CC(=O)O)NC(=O)[C@H](CO)NC(=O)[C@H](Cc1ccccc1)NC(=O)[C@H](CO)NC(=O)CNC(=O)[C@H](CC(=O)O)NC(=O)CNC(=O)[C@@H](N)Cc1c[nH]cn1)[C@@H](C)O)[C@@H](C)CC)C(=O)N[C@@H](CC(N)=O)C(=O)N[C@@H](Cc1c[nH]c2ccccc12)C(=O)N[C@@H](CC(C)C)C(=O)N[C@H](C(=O)N[C@@H](CCC(N)=O)C(=O)N[C@H](C(=O)N[C@@H](CCCCN)C(=O)N[C@H](C(=O)N[C@H](C(=O)N[C@@H](CC(=O)O)C(=O)O)[C@@H](C)O)[C@@H](C)CC)[C@@H](C)O)[C@@H](C)CC [Teduglutide]

blood concentration [11, 16]: lower than the detection limit of ELISA
bioavailability [11, 17]: 0.65%
Molecule: CC[C@H](C)[C@H](NC(=O)[C@H](CCC(=O)O)NC(=O)[C@H](CO)NC(=O)[C@H](CO)NC(=O)[C@@H](NC(=O)[C@H](CC(=O)O)NC(=O)[C@@H](NC(=O)[C@H](C)NC(=O)[C@H](C)NC(=O)[C@H](CC(=O)O)NC(=O)[C@H](CO)NC(C)=O)C(C)C)[C@@H](C)O)C(=O)N[C@H](C(=O)N[C@H](C(=O)N[C@@H](CCCCN)C(=O)N[C@@H](CC(=O)O)C(=O)N[C@@H](CC(C)C)C(=O)N[C@@H](CCCCN)C(=O)N[C@@H](CCC(=O)O)C(=O)N[C@@H](CCCCN)C(=O)N[C@@H](CCCCN)C(=O)N[C@@H](CCC(=O)O)C(=O)N[C@H](C(=O)N[C@H](C(=O)N[C@@H](CCC(=O)O)C(=O)N[C@@H](CCC(=O)O)C(=O)N[C@@H](C)C(=O)N[C@@H](CCC(=O)O)C(=O)N[C@@H](CC(N)=O)C(=O)O)C(C)C)C(C)C)[C@@H](C)O)[C@@H](C)O [Thymosin alpha-1] (Ac-SDAAVDTSSEITTKDLKEKKEVVEEAEN-OH)

blood concentration [12, 16]: lower than the detection limit of ELISA
bioavailability ([12]; male, rat, plasma, ei 200 μg/kg with composition sodium lauryl sulfate, carbomer 934, water-soluble chitosan, disodium edetate 24:7.5:7:75 (1:5), vs iv 1 μg/kg): 2.58%
Molecule: CC[C@H](C)[C@@H]1NC(=O)[C@H](Cc2ccc(O)cc2)NC(=O)[C@@H](N)CSSC[C@@H](C(=O)N2CCC[C@H]2C(=O)N[C@@H](CC(C)C)C(=O)NCC(N)=O)NC(=O)[C@H](CC(N)=O)NC(=O)[C@H](CCC(N)=O)NC1=O [Oxytocin]

Molecule: Mecasermin
bioavailability of small-intestinal administration ([13]; ei 200 μg/kg with composition sodium lauryl sulfate, carbomer, chitosan, sodium citrate 21:6:7:65 (1:5), vs iv 1 μg/kg): 1.38%
blood concentration [13, 16]: lower than the detection limit of ELISA

Molecule: CC(C)C[C@H](NC(=O)CNC(=O)[C@H](Cc1ccc(O)cc1)NC(=O)[C@H](CO)NC(=O)[C@H](Cc1c[nH]c2ccccc12)NC(=O)[C@H](Cc1cnc[nH]1)NC(=O)[C@@H]1CCC(=O)N1)C(=O)N[C@@H](CCCNC(=N)N)C(=O)N1CCC[C@H]1C(=O)NCC(N)=O [Gonadorelin]
blood concentration (in vivo [14]; SD rats, small-intestinal administration at 200 μg/kg without composition): lower than the detection limit of ELISA
bioavailability (in vivo [14]; male, SD, rat, plasma, 200 μg/kg): 1.58%

bioavailability (in vivo [15]): 1.69%
Molecule: CC(C)[C@@H]1NC(=O)[C@H](CCCCN)NC(=O)[C@@H](Cc2c[nH]c3ccccc23)NC(=O)[C@H](Cc2ccc(O)cc2)NC(=O)[C@@H](NC(=O)[C@H](N)Cc2ccccc2)CSSC[C@@H](C(=O)N[C@@H](Cc2c[nH]c3ccccc23)C(N)=O)NC1=O [Vapreotide] (H-[dF]CY[dW]KVCW-NH2; disulfide 2-7)
